# Like-named read-outs stand apart in the source and are kept apart here.
# What was measured:
# E. coli K12 PBP3 = target: T1, E. coli K12 PBP3 (Escherichia coli, UniProt P0AD68); assay: biochemical; assay type: binding
# T1 construct: made in house
# Source text: (§1) Example I: Experimental Method for Penicillin-Binding Protein Binding Assays with Bocillin-FL Via Fluorescence Polarization
# (§2) To determine the ability of boronic acid-based test PBP inhibitors to bind Penicillin Binding Proteins (PBPs), Bocillin-FL (fluorescently-labeled penicillin V; ThermoFisher Scientific) was used in a fluorescence polarization (FP) competition binding assay to assess inhibitor binding to PBP2, PBP3 or PBP4 from Escherichia coli (K12), PBP3 from Pseudomonas aeruginosa (PA01), PBP1a, PBP2 and PBP3 from Acinetobacter baumannii (ATCC 19606), and PBP2 from Neiserria gonorrheae (FA19). PBPs were cloned and purified as described previously (E. coli PBPs, King, D. T, et al., ACS Infectious Diseases 2015, 1, 175-184; P. aeruginosa PBP3, Han et. al., PNAS 2010, 107 (51), 22002-22007; A. baumannii PBPs, Penwell et. al., Antimicrob. Agents Chemother. 2015, 59 (3), 1680-1689; N. gonorrhoeae PBP2, Singh et. al., J Biol. Chem. 2019, 294 (38), 14020-14032). To establish assay conditions for competition binding, enzyme titration/saturation binding experiments were initially performed. Bocillin-FL was prepared at 0.2 μM in a buffer comprised of 50 mM Hepes (pH 8.0), 300 mM NaCl and 5% (v/v) glycerol for reactions with E. coli, P. aeruginosa and N. gonorrhoeae PBPs, and 25 mM Tris (pH 8.0), 200 mM NaCl and 10% (v/v) glycerol and 0.005% (v/v) Tween 20 for reactions with A. baumannii PBPs. Saturation binding was performed by mixing 40 μl of PBP solutions ranging in concentrations from 0-24 μM with 40 μl of the 0.2 μM Bocillin-FL solution, in individual wells of a black 384-well microplate. FP was measured immediately upon mixing (Excitation, 490 nm; Emission, 520 nm; g-factor, 0.96), using a Cytation3 (BioTek) microplate reader and measured continuously for up to 120 minutes. […] The competition binding assay (80 μl final volume) was validated using beta-lactams and PBPs at final concentrations of: 1.5 μM, E. coli PBP3; 0.75 μM, P. aeruginosa PBP3; 1 μM A. baumannii PBP1a; 2.5 μM A. baumannii PBP2; 0.2 μM A. baumannii PBP3; and […] N. gonorrhoeae PBP2. Bocillin-FL was at 0.1 μM (0.05 μM with A. baumannii PBP1a) and beta-lactam concentrations ranged from 0-1000 μM. […] Bocillin-FL was added and the FP immediately measured for up to 60 minutes (90 minutes for E. coli PBP2). […] The beta-lactam potency was reported as the concentration of beta-lactam required to reduce the amount of PBP bound-Bocillin-FL by 50% (EC50). […] Binding assays for boronic acid PBP inhibitors were performed in an identical fashion for the respective PBPs
# [1] = tested on: P. aeruginosa (ΔmexAB-oprM); assay: Broth microdilution MIC in CAMHB; assay type: cell-based; conditions: Pseudomonas aeruginosa, read-out: Minimum Inhibitory Concentration, P. aeruginosa ΔmexAB-OprM
# Procedure: (§3) Example III: In Vitro Antibacterial Assays
# (§4) To determine the ability of test compounds to inhibit the growth of bacterial strains, classic cell based broth microdilution minimum inhibitory concentration (MIC) assays were employed. MIC assays are performed according to CLSI methods except where otherwise noted (CLSI, 2018 and CLSI, 2019). The reference type strain E. coli ATCC 25922; the wild-type parent strain E. coli AG100; the hyper-permeable E. coli 901C and E. coli D22; and the E. coli AG100A strain lacking the acrAB efflux pump encoding genes were used to determine the ability of the PBP inhibitors to penetrate the outer membrane of gram-negative bacteria and inhibit bacterial growth. […] The P. aeruginosa ATCC 27853 and A. baumannii ATCC 19606, along with the hyper-permeable P. aeruginosa ATCC 35151 and an engineered efflux pump-compromised strain of P. aeruginosa (ΔmexAB-oprM) were used to determine the ability of PBP inhibitors to penetrate the outer membrane of P. aeruginosa and A. baumannii and assess antibacterial activity against these important gram-negative organisms.
# (§5) Briefly, cryo-preserved bacterial cultures of challenge strains are streaked for isolation on appropriate agar medium, in this case cation-adjusted Mueller Hinton agar. Following incubation to allow growth of the colonies, plates are sealed with parafilm and stored refrigerated for up to two weeks. For preparation of assay inoculum and to ensure low variability, at least 5 colonies are picked from the agar plates with an inoculating loop and aseptically transferred to a culture tube containing 3 mL of cation-adjusted Mueller Hinton broth (CAMHB). The broth culture is grown for 3-5 hours at 37° C. with shaking at 200 rpm. Meanwhile, 2-fold serial dilutions of test compounds are conducted in a 96-well plate with a final volume of 75 μL per well at 2-fold the final desired concentration. After the dilution plates are set up the growing cultures are then diluted in a cuvette containing CAMHB and the optical density is measured at 600 nm. The inoculum is diluted such that 75 μL of this culture in CAMHB results in a starting bacterial concentration of 2-8×10^5 CFU/mL when added to the dilution plates. The plates are incubated for 16-20 hours for Enterobacteriaceae and Pseudomonas and 20-24 hours for Acinetobacter at 37° C. The MIC values are read visually as the lowest concentration well with no bacterial growth.
# E. coli ATCC 25922 = assay: Broth microdilution MIC in CAMHB; assay type: cell-based
# Procedure: as §3, §4, §5
# E. coli 901C = assay: Broth microdilution MIC in CAMHB; assay type: cell-based; conditions: Escherichia coli, MHB, read-out: Minimum Inhibitory Concentration, E. coli 901C
# Procedure: as §3, §4, §5
# P. aeruginosa ATCC 35151 = assay: Broth microdilution MIC in CAMHB; assay type: cell-based; conditions: Pseudomonas aeruginosa, ATCC35151; MHB; hyper-permeable strain; read-out: Minimum Inhibitory Concentration, P. aeruginosa ATCC 35151
# Procedure: as §3, §4, §5
# E. coli D22 = assay: Broth microdilution MIC in CAMHB; assay type: cell-based; conditions: Escherichia coli, MHB, read-out: Minimum Inhibitory Concentration, E. coli D22
# Procedure: as §3, §4, §5
# E. coli AG100A = assay: Broth microdilution MIC in CAMHB; assay type: cell-based; conditions: Escherichia coli, read-out: Minimum Inhibitory Concentration, E. coli AG100A
# Procedure: as §3, §4, §5
# P. aeruginosa ATCC 27853 = assay: Broth microdilution MIC in CAMHB; assay type: cell-based; conditions: Pseudomonas aeruginosa, ATCC27853; MHB; read-out: Minimum Inhibitory Concentration, P. aeruginosa ATCC 27853
# Procedure: as §3, §4, §5
# [2] = tested on: K. pneumoniae 848844 producing SHV-11 and KPC-2; assay: Broth microdilution MIC in CAMHB; assay type: cell-based; conditions: Klebsiella pneumoniae, read-out: Minimum Inhibitory Concentration, K. pneumoniae 848844
# Procedure: as §3, §4, §5
# E. coli AG100 = assay: Broth microdilution MIC in CAMHB; assay type: cell-based; conditions: Escherichia coli, MHB, read-out: Minimum Inhibitory Concentration, E. coli AG100
# Procedure: as §3, §4, §5
# A. baumannii ATCC 19606 = assay: Broth microdilution MIC in CAMHB; assay type: cell-based; conditions: Acinetobacter baumannii, ATCC19606; MHB; read-out: Minimum Inhibitory Concentration, A. baumannii ATCC 19606
# Procedure: as §3, §4, §5
# [3] = tested on: K. pneumoniae SI-117 producing VIM-1; assay: Broth microdilution MIC in CAMHB; assay type: cell-based; conditions: Klebsiella pneumoniae, read-out: Minimum Inhibitory Concentration, K. pneumoniae SI-117
# Procedure: as §3, §4, §5
# [4] = tested on: K. pneumoniae UMM producing SHV-5 and KPC-2; assay: Broth microdilution MIC in CAMHB; assay type: cell-based; conditions: Klebsiella pneumoniae, read-out: Minimum Inhibitory Concentration, K. pneumoniae UMM
# Procedure: as §3, §4, §5
# P. aeruginosa PBP3 = target: T2, P. aeruginosa PBP3 (Pseudomonas aeruginosa, UniProt G3XD46); assay: Bocillin-FL fluorescence polarization competition binding assay, P. aeruginosa PBP3; conditions: fluorescence polarization competition binding assay using Bocillin-FL
# T2 construct: made in house
# Source text: as §1, §2
# [5] = Escherichia coli, ATCC25922; E. coli ATCC 25922; MHB; read-out: Minimum Inhibitory Concentration, E. coli 25922
# [6] = E. coli AG100 (wild-type parent)
# [7] = Escherichia coli, ATCC25922; MHB; E. coli ATCC 25922; read-out: Minimum Inhibitory Concentration, E. coli 25922
# [8] = wild-type parent strain E. coli AG100
# T2 sequence (G3XD46 whole entry): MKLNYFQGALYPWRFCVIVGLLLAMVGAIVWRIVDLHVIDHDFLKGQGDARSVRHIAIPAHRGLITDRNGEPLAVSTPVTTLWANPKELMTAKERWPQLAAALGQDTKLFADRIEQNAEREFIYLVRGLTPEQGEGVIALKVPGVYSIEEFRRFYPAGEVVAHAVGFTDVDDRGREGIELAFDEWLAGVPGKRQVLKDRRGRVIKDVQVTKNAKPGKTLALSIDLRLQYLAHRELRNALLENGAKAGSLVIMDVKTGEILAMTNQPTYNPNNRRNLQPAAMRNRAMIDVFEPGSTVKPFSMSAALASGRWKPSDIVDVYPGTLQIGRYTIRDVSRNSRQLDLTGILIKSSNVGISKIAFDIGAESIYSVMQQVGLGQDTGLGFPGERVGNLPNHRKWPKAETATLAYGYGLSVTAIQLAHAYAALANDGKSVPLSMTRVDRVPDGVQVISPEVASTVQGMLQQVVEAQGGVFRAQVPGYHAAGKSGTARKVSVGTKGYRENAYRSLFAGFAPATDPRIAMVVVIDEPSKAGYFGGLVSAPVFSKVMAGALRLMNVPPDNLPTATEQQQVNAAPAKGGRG
# T1 sequence (P0AD68 1-577): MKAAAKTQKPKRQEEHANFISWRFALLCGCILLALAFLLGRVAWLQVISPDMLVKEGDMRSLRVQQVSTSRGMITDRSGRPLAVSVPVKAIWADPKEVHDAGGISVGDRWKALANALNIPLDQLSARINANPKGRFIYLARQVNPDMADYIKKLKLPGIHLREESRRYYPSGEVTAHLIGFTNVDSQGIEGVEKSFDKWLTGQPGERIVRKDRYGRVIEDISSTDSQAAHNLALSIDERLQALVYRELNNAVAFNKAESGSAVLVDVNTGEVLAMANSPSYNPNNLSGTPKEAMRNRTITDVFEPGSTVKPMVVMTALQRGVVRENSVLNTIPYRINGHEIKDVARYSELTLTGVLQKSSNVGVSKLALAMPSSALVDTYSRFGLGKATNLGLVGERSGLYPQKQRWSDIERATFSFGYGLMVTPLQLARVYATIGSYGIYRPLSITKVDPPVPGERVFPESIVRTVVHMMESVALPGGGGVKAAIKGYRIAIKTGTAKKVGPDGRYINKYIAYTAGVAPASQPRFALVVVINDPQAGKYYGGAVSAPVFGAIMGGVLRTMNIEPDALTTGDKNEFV
Structure (SMILES),EC50 (E. coli K12 PBP3) [µM],MIC [1] [µg/mL],MIC (E. coli ATCC 25922; [5]) [µg/mL],MIC (E. coli 901C; E. coli 901C (hyper-permeable)) [µg/mL],MIC (P. aeruginosa ATCC 35151) [µg/mL],MIC (E. coli D22; E. coli D22 (hyper-permeable)) [µg/mL],MIC (E. coli AG100A) [µg/mL],MIC (P. aeruginosa ATCC 27853) [µg/mL],MIC [2] [µg/mL],MIC (E. coli AG100; [6]) [µg/mL],MIC (A. baumannii ATCC 19606) [µg/mL],MIC [3] [µg/mL],MIC [4] [µg/mL],P. aeruginosa PBP3 Potency (P. aeruginosa PBP3),MIC (E. coli ATCC 25922; [7]) [µg/mL],MIC (E. coli 901C; hyper-permeable E. coli 901C) [µg/mL],MIC (E. coli D22; hyper-permeable E. coli D22) [µg/mL],MIC (E. coli AG100; [8]) [µg/mL]
"NS(=O)(=O)Nc1ccc(F)c([C@H](NC(=O)N2CCN(CC(F)(F)F)C(=O)C2=O)C(=O)N[C@H]2Cc3cccc(C(=O)O)c3OB2O)c1 (single isomer, unassigned) [Example 218]",30 to 500,32 to 64,> 128,0.5 to 1,8 to 16,8 to 16,32 to 64,> 128,> 128,> 128,> 128,> 128,> 128,C (C represents a potency between 10 and 30 μM),,,,
"CCN1C[C@H](C)N(C(=O)NC(C(=O)N[C@H]2Cc3cccc(C(=O)O)c3OB2O)c2c(F)cc(O)cc2F)C(=O)C1=O (stereo partly drawn) [Example 232, (3R)-3-(2-(2,6-difluoro-4-hydroxyphenyl)-2-((S)-4-ethyl-6-methyl-2,3-dioxopiperazine-1-carboxamido)acetamido)-2-hydroxy-3,4-dihydro-2H-benzo[e][1,2]oxaborinine-8-carboxylic acid]",< 30,8 to 16,,,2 to 4,,32 to 64,> 128,8 to 16,,> 128,2 to 4,< 0.25,D (D represents a potency <10 μM),8 to 16,32 to 64,32 to 64,32 to 64
"NS(=O)(=O)Nc1cccc([C@@H](NC(=O)N2CCN(CC(F)(F)F)C(=O)C2=O)C(=O)N[C@H]2Cc3cccc(C(=O)O)c3OB2O)c1 (single isomer, unassigned) [Example 217]",< 30,8 to 16,32 to 64,0.5 to 1,2 to 4,2 to 4,8 to 16,> 128,> 128,32 to 64,> 128,> 128,32 to 64,D (D represents a potency <10 μM),,,,
"NCCN1CCN(C(=O)N[C@@H](C(=O)N[C@H]2Cc3cccc(C(=O)O)c3OB2O)c2c(Cl)cccc2Cl)C(=O)C1=O (single isomer, unassigned) [Example 224]",,> 128,,,32 to 64,,> 128,> 128,> 128,,> 128,> 128,8 to 16,B (B represents a potency between 30 μM and 500 μM inclusive),> 128,> 128,> 128,> 128
